# Source: patent publication US10555987B2, “GHRH agonists for the treatment of ischemic disorders” (UNIVERSITY OF MIAMI, priority 2012, dated 2020)
# Non-standard residues stand in square brackets, D forms with d. Residues, ends and D or L forms follow the SMILES beside them. *: point of attachment. Desaminotyrosyl = O=C(CCc1ccc(O)cc1)*; NMeY = CN[C@@H](Cc1ccc(O)cc1)C(=O)O; Agmatine = N=C(N)NCCCCN*; Nle = CCCC[C@H](N)C(=O)O; Orn = NCCC[C@H](N)C(=O)O; Abu = CC[C@H](N)C(=O)O; Ava = NCCCCC(=O)O
# Legend:
# GH release [1] = assay: In vivo endocrine activity, GH release after subcutaneous administration (Table 9); settings: rat, subcutaneous (s.c.) injection
# Method: Subcutaneous Administration. Adult male rats were used and anesthetized with pentobarbital (6 mg/100 g, b.w.), by i.p. injection. […] Blood samples were taken from the jugular vein 5, 15 and/or 30 minutes after the injection. The blood samples were centrifuged, plasma was removed and the GH level was measured byELISA. The results are summarized in terms of potency in Table 9.
# GH release [2] = assay: GH releasing potency in vivo, subcutaneous administration (Example 14, Table 12); parameters: species or system rat; settings: s.c.; for Serum GH level at selected time after injection (ng/ml), 0 min / Serum GH level at selected time after injection (ng/ml), 15 min / Serum GH level at selected time after injection (ng/ml), 30 min: male rats, dose 3 μg/kg, mean ± SEM
# Method: Male Sprague-Dawley rats, weighing 200-250 g, were purchased from Charles River Laboratory (Wilmington, Mass.) and used for experiments. All animal procedures were approved by the Veterans Affairs Animal Care and Use Committee and were conducted in accordance with additional institutional guidelines as well. Briefly, groups of 5-6 animals were used in each experiment. The rats were anesthetized with 50 mg/kg of sodium pentobarbital (Nembutal, Lundbeck Inc., Deerfield, Ill.). Twenty min after inducing anesthesia, GHRH(1-29)NH2, JI-38, or new analogs were injected into the animals intravenously (i.v.) or subcutaneously (s.c.). The peptides were dissolved in 0.01 M acetic acid to get 1 μg/μl stock solution, and then diluted with 5% mannitol. Control rats received 5% mannitol only. Blood samples were collected from the jugular vein at selected times and were used for serum preparation. Concentrations of GH in rat sera were determined by ELISA. The relative potencies of tested peptides were calculated using GHRH(1-29)NH2 and JI-38 for comparison, whose potency was defined as 1. The equivalent dosage of GHRH(1-29)NH2 to reach the same level of serum growth hormone release after injection of the specific tested peptide was determined from a GHRH(1-29)NH2 standard curve using Origin 6.0 software. […] Serum GH was determined using the rat Growth Hormone ELISA kit (ALPCO Diagnostics, Mill Valley, Calif.) according to the manufacturer's instruction. Absorbance at 405 nm was measured by a Victor 3 Multi-label Counter (Perkin-Elmer, Waltham, Md.).
# GHRH receptor [3] = target: T1, GHRH receptor (Homo sapiens, UniProt Q02643); assay: Receptor binding in vitro, 125I-labeled [His1,Nle27]-hGHRH(1-32)NH2, membrane receptors of human anterior pituitary cells (Table 14); settings: for Relative affinity (Binding potency) compared to JI-38: JI-38 = 1; for Relative affinity (Binding potency) compared to hGHRH(1-29): hGHRH(1-29)NH2 = 1
# T1 sequence (Q02643 23-423): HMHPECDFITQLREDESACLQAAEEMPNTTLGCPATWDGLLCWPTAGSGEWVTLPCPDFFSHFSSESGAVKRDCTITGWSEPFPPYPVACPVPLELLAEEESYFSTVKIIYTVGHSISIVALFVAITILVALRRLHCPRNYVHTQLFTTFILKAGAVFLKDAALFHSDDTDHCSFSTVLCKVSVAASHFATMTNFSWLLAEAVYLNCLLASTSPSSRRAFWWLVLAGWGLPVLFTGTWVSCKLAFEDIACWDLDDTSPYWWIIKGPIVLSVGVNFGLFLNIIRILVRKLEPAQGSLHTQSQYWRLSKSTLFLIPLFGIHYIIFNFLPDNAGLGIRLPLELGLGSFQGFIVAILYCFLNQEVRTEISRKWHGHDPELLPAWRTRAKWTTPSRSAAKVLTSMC
# GHRH receptor [4] = target: T1, GHRH receptor; assay: GHRH receptor binding, competition with 125I-labeled JV-1-42, human pituitary membrane homogenates (Table 7); parameters: Normal human pituitaries were purchased from the National Hormone and Peptide Program; tissue National Hormone and Peptide Program (A.F. Parlow, Harbor-UCLA Medical Center, Torrance, Calif.); host or cells: normal human pituitary, membrane fraction; settings: for Relative affinity (Binding potency) vs JI-38: JI-38 = 1, Table 7
# From the text: Normal human pituitaries were purchased from the National Hormone and Peptide Program (A.F. Parlow, Los Angeles, County Harbor-UCLA Medical Center, Torrance, Calif.).
Relative affinity (Binding potency) compared to JI-38 (GHRH receptor [3]),Relative affinity (Binding potency) compared to hGHRH(1-29) (GHRH receptor [3]),Relative affinity (Binding potency) vs JI-38 (GHRH receptor [4]),Compound,GH releasing potency relative to JI-38 (=1) (GH release [1]; 15 min after),GH releasing potency relative to JI-38 (=1) (GH release [1]; 30 min after),"Serum GH level at selected time after injection (ng/ml), 0 min (GH release [2]) [ng/mL]","Serum GH level at selected time after injection (ng/ml), 15 min (GH release [2]) [ng/mL]","Serum GH level at selected time after injection (ng/ml), 30 min (GH release [2]) [ng/mL]",GH-releasing potency after s.c. administration (in words) (GH release [2]),"Relative potency compared to GHRH(1-29), 15 min (GH release [2])","Relative potency compared to JI-38, 15 min (GH release [2])","Relative potency compared to GHRH(1-29), 30 min (GH release [2])","Relative potency compared to JI-38, 30 min (GH release [2])",GHRH receptor binding affinity (in words) (GHRH receptor [3]; compared to JI-38),"IC50 (GHRH receptor [4]; 125I-JV-1-42, human pituitary membranes, Table 7) [nM]"
1.34,3.75,2.18,"CCCC[C@H](NC(=O)[C@@H](NC(=O)[C@H](CC(=O)O)NC(=O)[C@H](CCC(N)=O)NC(=O)[C@H](CC(C)C)NC(=O)[C@H](CC(C)C)NC(=O)[C@H](CCCN)NC(=O)[C@H](CCCNC(=N)N)NC(=O)[C@H](C)NC(=O)[C@H](CO)NC(=O)[C@H](CC(C)C)NC(=O)[C@H](CCC(N)=O)NC(=O)[C@H](CC)NC(=O)[C@H](CC(C)C)NC(=O)[C@@H](NC(=O)[C@H](CCCN)NC(=O)[C@H](CCCNC(=N)N)NC(=O)[C@H](Cc1ccc(O)cc1)NC(=O)[C@H](CO)NC(=O)[C@H](CCC(N)=O)NC(=O)[C@@H](NC(=O)[C@H](Cc1ccccc1)NC(=O)[C@@H](NC(=O)[C@H](C)NC(=O)[C@H](CC(=O)O)NC(=O)[C@H](C)NC(=O)CCc1ccc(O)cc1)[C@@H](C)CC)[C@@H](C)O)C(C)C)[C@@H](C)CC)C(=O)N[C@@H](CC(=O)O)C(=O)N[C@@H](CCCNC(=N)N)C(=O)NCCCCC(N)=O [Peptide P-22327, [Dat^1, Gln^8, Orn^12, Abu^15, Orn^21, Nle^27, Asp^28, Apa^30]hGHRH(1-30)NH2] (Desaminotyrosyl-ADAIFTQSYR[Orn]VL[Abu]QLSAR[Orn]LLQDI[Nle]DR[Ava]-NH2)",1.15,1.30,31.5 ± 3.4,258.7 ± 31.1,138 ± 27.9,–,73.5,1.16,126.5,1.16,–,–
1.05,2.94,1.59,"CCCC[C@H](NC(=O)[C@@H](NC(=O)[C@H](CC(=O)O)NC(=O)[C@H](CCC(N)=O)NC(=O)[C@H](CC(C)C)NC(=O)[C@H](CC(C)C)NC(=O)[C@H](CCCN)NC(=O)[C@H](CCCNC(=N)N)NC(=O)[C@H](C)NC(=O)[C@H](CO)NC(=O)[C@H](CC(C)C)NC(=O)[C@H](CCC(N)=O)NC(=O)[C@H](CC)NC(=O)[C@H](CC(C)C)NC(=O)[C@@H](NC(=O)[C@H](CCCN)NC(=O)[C@H](CCCNC(=N)N)NC(=O)[C@H](Cc1ccc(O)cc1)NC(=O)[C@H](CO)NC(=O)[C@H](CCC(N)=O)NC(=O)[C@@H](NC(=O)[C@H](Cc1ccccc1)NC(=O)[C@@H](NC(=O)[C@H](C)NC(=O)[C@H](CC(=O)O)NC(=O)[C@@H](C)NC(=O)CCc1ccc(O)cc1)[C@@H](C)CC)[C@@H](C)O)C(C)C)[C@@H](C)CC)C(=O)N[C@@H](CC(=O)O)C(=O)N[C@H](CCCNC(=N)N)C(=O)NC [Peptide P-27401, [Dat^1, D-Ala^2, Gln^8, Orn^12, Abu^15, Orn^21, Nle^27, Asp^28, D-Arg^29]hGHRH(1-29)NH—CH3] (Desaminotyrosyl-[dA]DAIFTQSYR[Orn]VL[Abu]QLSAR[Orn]LLQDI[Nle]D[dR]-NHMe)",0.61,0.73,24.6 ± 5.3,217.9 ± 37.0,204.1 ± 23.7,significantly higher potencies at 30 minutes than at 15 minutes,58.8,0.93,253.4,2.27,–,–
0.90,2.50,2.96,"CCCC[C@H](NC(=O)[C@@H](NC(=O)[C@H](CC(=O)O)NC(=O)[C@H](CCC(N)=O)NC(=O)[C@H](CC(C)C)NC(=O)[C@H](CC(C)C)NC(=O)[C@H](CCCN)NC(=O)[C@H](CCCNC(=N)N)NC(=O)[C@H](C)NC(=O)[C@H](CO)NC(=O)[C@H](CC(C)C)NC(=O)[C@H](CCC(N)=O)NC(=O)[C@H](CC)NC(=O)[C@H](CC(C)C)NC(=O)[C@@H](NC(=O)[C@H](CCCN)NC(=O)[C@H](CCCNC(=N)N)NC(=O)[C@H](Cc1ccc(O)cc1)NC(=O)[C@H](CO)NC(=O)[C@H](CC(N)=O)NC(=O)[C@@H](NC(=O)[C@H](Cc1ccccc1)NC(=O)[C@@H](NC(=O)[C@H](C)NC(=O)[C@H](CC(=O)O)NC(=O)[C@@H](C)NC(=O)[C@H](Cc1ccc(O)cc1)NC)[C@@H](C)CC)[C@@H](C)O)C(C)C)[C@@H](C)CC)C(=O)N[C@@H](CC(=O)O)C(=O)N[C@@H](CCCNC(=N)N)C(=O)NCC [Peptide P-28421, [N—Me-Tyr^1, D-Ala^2, Orn^12, Abu^15, Orn^21, Nle^27, Asp^28]hGHRH(1-29) NH—CH2—CH3] (H-[NMeY][dA]DAIFTNSYR[Orn]VL[Abu]QLSAR[Orn]LLQDI[Nle]DR-NHEt)",–,–,44.0 ± 8.9,252.4 ± 33.3,137.3 ± 17.5,–,71.2,1.13,125.4,1.12,–,–

Compound,Relative affinity (Binding potency) compared to JI-38 (GHRH receptor [3]),Relative affinity (Binding potency) compared to hGHRH(1-29) (GHRH receptor [3]),Relative affinity (Binding potency) vs JI-38 (GHRH receptor [4]),GH releasing potency relative to JI-38 (=1) (GH release [1]; 15 min after),GH releasing potency relative to JI-38 (=1) (GH release [1]; 30 min after),"Serum GH level at selected time after injection (ng/ml), 0 min (GH release [2]) [ng/mL]","Serum GH level at selected time after injection (ng/ml), 15 min (GH release [2]) [ng/mL]","Serum GH level at selected time after injection (ng/ml), 30 min (GH release [2]) [ng/mL]",GH-releasing potency after s.c. administration (in words) (GH release [2]),"Relative potency compared to GHRH(1-29), 15 min (GH release [2])","Relative potency compared to JI-38, 15 min (GH release [2])","Relative potency compared to GHRH(1-29), 30 min (GH release [2])","Relative potency compared to JI-38, 30 min (GH release [2])",GHRH receptor binding affinity (in words) (GHRH receptor [3]; compared to JI-38),"IC50 (GHRH receptor [4]; 125I-JV-1-42, human pituitary membranes, Table 7) [nM]"
"CCCC[C@H](NC(=O)[C@@H](NC(=O)[C@H](CC(=O)O)NC(=O)[C@H](CCC(N)=O)NC(=O)[C@H](CC(C)C)NC(=O)[C@H](CC(C)C)NC(=O)[C@H](CCCN)NC(=O)[C@H](CCCNC(=N)N)NC(=O)[C@H](C)NC(=O)[C@H](CO)NC(=O)[C@H](CC(C)C)NC(=O)[C@H](CCC(N)=O)NC(=O)[C@H](CC)NC(=O)[C@H](CC(C)C)NC(=O)[C@@H](NC(=O)[C@H](CCCN)NC(=O)[C@H](CCCNC(=N)N)NC(=O)[C@H](Cc1ccc(O)cc1)NC(=O)[C@H](CO)NC(=O)[C@H](CCC(N)=O)NC(=O)[C@@H](NC(=O)[C@H](Cc1ccccc1)NC(=O)[C@@H](NC(=O)[C@H](C)NC(=O)[C@H](CC(=O)O)NC(=O)[C@@H](C)NC(=O)[C@H](Cc1ccc(O)cc1)N(C)C(C)=O)[C@@H](C)CC)[C@@H](C)O)C(C)C)[C@@H](C)CC)C(=O)N[C@@H](CC(=O)O)C(=O)NCCCCNC(=N)N [Peptide P-20351, [Ac—N—Me-Tyr^1, D-Ala^2, Gln^8, Orn^12, Abu^15, Orn^21, Nle^27, Asp^28, Agm^29] hGHRH(1-29)NH2] (Ac-[NMeY][dA]DAIFTQSYR[Orn]VL[Abu]QLSAR[Orn]LLQDI[Nle]D-Agmatine)",0.71,1.98,1.26,0.38,0.44,30.6 ± 7.2,90.8 ± 20.3,65.4 ± 10.1,weaker GH-releasing potency,18.8,0.30,33.6,0.30,weaker GH-releasing potency and GH receptor binding affinity,3.44
